Measured values from patent US20120034613A1, “Apparatus and Method for Testing Relationships Between Gene Expression and Physical Appearance of Skin” (NSE Products, Inc., priority 2010, published 2012).

Tested on: EpidermFT™ Skin Model (EFT-400) full thickness skin cultures
Assay: Affymetrix GeneChip HG U133 Plus 2.0 microarray global gene expression, agent-exposed vs untreated skin cultures
Format: cell-based, human
Conditions: Salicin 0.5% vs Untreated Control

OCc1ccccc1O[C@@H]1O[C@H](CO)[C@@H](O)[C@H](O)[C@H]1O [Salicin, 2-(Hydroxymethyl)phenyl β-D-glucospyranoside]
Fold change TMEM38B (222736_s_at) (24 hr treatment): 2.316 | Fold change TMEM39A (218615_s_at) (24 hr treatment): 2.497 | Fold change TMEM39A (222690_s_at) (24 hr treatment): 2.47 | Fold change TMTC1 (226322_at) (24 hr treatment): 2.647 | Fold change TMTC1 (226931_at) (24 hr treatment): 2.583 | Fold change TNC (216005_at) (24 hr treatment): 2.719 | Fold change TNFAIP6 (206026_s_at) (24 hr treatment): 2.52 | Fold change TNIP3 (220655_at) (24 hr treatment): 2.654 | Fold change TRPA1 (217590_s_at) (24 hr treatment): 2.602 | Fold change TRPC4 (224220_x_at) (24 hr treatment): 2.708 | Fold change UBE2B (239163_at) (24 hr treatment): 2.636 | Fold change UGCGL2 (218801_at) (24 hr treatment): 2.4 | Fold change UST (205139_s_at) (24 hr treatment): 2.454 | Fold change WIPI1 (203827_at) (24 hr treatment): 2.744 | Fold change XPO1 (235927_at) (24 hr treatment): 2.529 | Fold change ZFAND5 (217649_at) (24 hr treatment): 2.438 | Fold change ZFP36L1 (211965_at) (24 hr treatment): 2.705 | Fold change ZNF281 (228785_at) (24 hr treatment): 2.627 | Fold change ZNF331 (219228_at) (24 hr treatment): 2.442 | Fold change ZNF697 (227080_at) (24 hr treatment): 2.599 | Fold change ABCD3 (202850_at) (24 hr, direction down): 2.077 | Fold change ABCG4 (207593_at) (24 hr, direction down): 2.004 | Fold change ACACA (212186_at) (24 hr, direction down): 2.091 | Fold change ACAD9 (224160_s_at) (24 hr, direction down): 2.034 | Fold change ACOX3 (204241_at) (24 hr, direction down): 2.001 | Fold change ADAMTSL4 (226071_at) (24 hr, direction down): 2.137 | Fold change ADARB1 (203865_s_at) (24 hr, direction down): 2.089 | Fold change AHNAK (211986_at) (24 hr, direction down): 2.023 | Fold change AIF1L (223075_s_at) (24 hr, direction down): 2.169 | Fold change AK1 (202587_s_at) (24 hr, direction down): 2.078 | Fold change AK3L1 /// AK3L2 (204347_at) (24 hr, direction down): 2.026 | Fold change ALDH5A1 (203609_s_at) (24 hr, direction down): 2.111 | Fold change ALOX12 (207206_s_at) (24 hr, direction down): 2.124 | Fold change AMACR (209426_s_at) (24 hr, direction down): 2.021 | Fold change AMOTL2 (203002_at) (24 hr, direction down): 2.089 | Fold change ANK3 (207950_s_at) (24 hr, direction down): 2.049 | Fold change APPL2 (218218_at) (24 hr, direction down): 2.013 | Fold change AQP3 (203747_at) (24 hr, direction down): 2.032 | Fold change ARHGAP27 (225618_at) (24 hr, direction down): 2.077 | Fold change ARL17 /// ARL17P1 (1555964_at) (24 hr, direction down): 2.016 | Fold change ARPC1A (200950_at) (24 hr, direction down): 2.042 | Fold change ASAP3 (222236_s_at) (24 hr, direction down): 2.079 | Fold change ATP2B4 (212136_at) (24 hr, direction down): 2.118 | Fold change ATXN3 (205416_s_at) (24 hr, direction down): 2.164 | Fold change BAIAP2 (205293_x_at) (24 hr, direction down): 2.03 | Fold change BCL11A (1559078_at) (24 hr, direction down): 2.151 | Fold change BCL11B (222895_s_at) (24 hr, direction down): 2.021 | Fold change BICD2 (1553021_s_at) (24 hr, direction down): 2.09 | Fold change BLCAP (201032_at) (24 hr, direction down): 2.077 | Fold change C1orf46 (216718_at) (24 hr, direction down): 2.083 | Fold change C1orf71 (225551_at) (24 hr, direction down): 2.006 | Fold change C1orf97 (224443_at) (24 hr, direction down): 2.02 | Fold change C2orf7 (223312_at) (24 hr, direction down): 2.047 | Fold change C4orf3 (224605_at) (24 hr, direction down): 2.002 | Fold change C6orf105 (215100_at) (24 hr, direction down): 2.121 | Fold change C12orf29 (228378_at) (24 hr, direction down): 2.164 | Fold change C15orf52 (227272_at) (24 hr, direction down): 2.042 | Fold change C17orf67 (236863_at) (24 hr, direction down): 2.03 | Fold change C20orf177 (225313_at) (24 hr, direction down): 2.134 | Fold change CALM1 /// CALM2 /// CALM3 (200653_s_at) (24 hr, direction down): 2.056 | Fold change CALM1 /// CALM2 /// CALM3 (209563_x_at) (24 hr, direction down): 2.029 | Fold change CAT (211922_s_at) (24 hr, direction down): 2.095 | Fold change CENPT (218148_at) (24 hr, direction down): 2.074 | Fold change CEP76 (52285_f_at) (24 hr, direction down): 2.004 | Fold change CERK (218421_at) (24 hr, direction down): 2.138 | Fold change CKB (200884_at) (24 hr, direction down): 2.055 | Fold change CLCN5 (232127_at) (24 hr, direction down): 2.126 | Fold change CLDN7 (202790_at) (24 hr, direction down): 2.043 | Fold change CLIP1 (1558924_s_at) (24 hr, direction down): 2.123 | Fold change CLN8 (229958_at) (24 hr, direction down): 2.102 | Fold change CNDP2 (217752_s_at) (24 hr, direction down): 2.002 | Fold change CNTN1 (211203_s_at) (24 hr, direction down): 2.105 | Fold change CSNK2A2 (203575_at) (24 hr, direction down): 2.095 | Fold change CTAGE4 (215549_x_at) (24 hr, direction down): 2.108 | Fold change CXCL12 (203666_at) (24 hr, direction down): 2.074 | Fold change CYB5R1 (202263_at) (24 hr, direction down): 2.119 | Fold change CYCS (244546_at) (24 hr, direction down): 2.168 | Fold change DBI (211070_x_at) (24 hr, direction down): 2.056 | Fold change DDR1 (1007_s_at) (24 hr, direction down): 2.104 | Fold change DDX50 (1568815_a_at) (24 hr, direction down): 2.115 | Fold change DHRS4 /// DHRS4L2 (218021_at) (24 hr, direction down): 2.062 | Fold change DMD (203881_s_at) (24 hr, direction down): 2.165 | Fold change DOPEY2 (205248_at) (24 hr, direction down): 2.103 | Fold change ELOVL3 (234513_at) (24 hr, direction down): 2.048 | Fold change EPCAM (201839_s_at) (24 hr, direction down): 2.093 | Fold change EPHB4 (202894_at) (24 hr, direction down): 2.087 | Fold change EPHB6 (204718_at) (24 hr, direction down): 2.036 | Fold change ERI2 (213365_at) (24 hr, direction down): 2.167 | Fold change F2RL1 (206429_at) (24 hr, direction down): 2.099 | Fold change FAM33A (225684_at) (24 hr, direction down): 2.022 | Fold change FAR1 (224865_at) (24 hr, direction down): 2.117 | Fold change FBXO3 (229955_at) (24 hr, direction down): 2.107 | Fold change FBXO3 (238686_at) (24 hr, direction down): 2.147 | Fold change FBXO9 (212991_at) (24 hr, direction down): 2.083 | Fold change FBXO9 (1559094_at) (24 hr, direction down): 2.099 | Fold change FIGNL1 (222843_at) (24 hr, direction down): 2.071 | Fold change FKBP1B (206857_s_at) (24 hr, direction down): 2.113 | Fold change FKBPL (219187_at) (24 hr, direction down): 2.09 | Fold change FRAG1 (41858_at) (24 hr, direction down): 2.049 | Fold change FUCA1 (202838_at) (24 hr, direction down): 2.147 | Fold change FUT2 (210608_s_at) (24 hr, direction down): 2.05 | Fold change GAB1 (225998_at) (24 hr, direction down): 2.071 | Fold change GAS7 (202192_s_at) (24 hr, direction down): 2.035 | Fold change GDAP1 (226269_at) (24 hr, direction down): 2.153 | Fold change GNG4 (205184_at) (24 hr, direction down): 2.054 | Fold change GPR1 (214605_x_at) (24 hr, direction down): 2.109 | Fold change GPR137B (204137_at) (24 hr, direction down): 2.046 | Fold change GSN (200696_s_at) (24 hr, direction down): 2.089 | Fold change HES5 (239230_at) (24 hr, direction down): 2.078 | Fold change HIGD1A (217845_x_at) (24 hr, direction down): 2.017 | Fold change HN1 (222396_at) (24 hr, direction down): 2.105 | Fold change HN1L (212115_at) (24 hr, direction down): 2.003 | Fold change HSDL2 (209512_at) (24 hr, direction down): 2.126 | Fold change ID2 (201565_s_at) (24 hr, direction down): 2.158
